{
  "source": "paper PMC8838850",
  "about": "“Synthesis, Antimicrobial, Anti-Virulence and Anticancer Evaluation of New 5(4H)-Oxazolone-Based Sulfonamides” (Molecules, 2022)",
  "key": {"S. aureus": {"tested_on": "S. aureus", "experiment": "Assay of hemolytic activity", "assay_type": "cell-based, Staphylococcus aureus", "settings": "sub-MIC", "description": "(§1) The anti-virulence effects of compounds 5, 7 and 10 on hemolytic activity of tested P. aeruginosa and S. aureus strains were assessed as described previously. Optically adjusted bacterial cultures treated or untreated with tested compounds at sub-MIC were centrifuged, and 0.5 mL of supernatants were mixed with fresh 0.8 mL 2% erythrocyte (obtained from experimental animals) suspension in saline, and incubated for 2 h at 37 °C. A complete hemolysis positive control was prepared by addition of sodium dodecyl sulphate (SDS) to erythrocyte suspension, and negative control was prepared by incubation of erythrocytes in LB broth under the same conditions. After centrifugation, the absorbances of the lysed erythrocytes were measured at 540 nm by Biotek spectrofluorometer (Biotek, Winooski, VT, USA). The experiment was performed in triplicate, and the hemolysis of tested compound treated cultures were expressed as mean ± standard error of percentages compared with those obtained from untreated control cultures using the formula: (absorbance in presence or absence of tested compounds—absorbance of negative control)/(absorbance of positive control—absorbance of negative control)."}, "HepG-2": {"tested_on": "HepG-2", "experiment": "SRB cellular proliferation assay", "assay_type": "cell-based, human", "settings": "Homo sapiens, HepG2, HepG-2 cells, mean ± SD (n = 3), read-out: IC50", "description": "(§2) The pancreatic human cancer cell lines BxPC-3 and Panc-1, the human hepatocellular carcinoma (HepG-2), and the normal immortalized pancreatic cell line HPDE, that were used in this study, were obtained from the American Type Culture Collection (Rockville, USA). Cell lines were cultured and treated with the tested compounds or dimethyl sulfoxide (DMSO) as previously described. Cells were cultivated in DMEM medium (Invitrogen, Carlsbad, CA, USA), supplemented with streptomycin, penicillin and fetal bovine serum (FCS) (Invitrogen, Carlsbad, CA, USA). The sulforhodamine B (SRB) assay was employed to assess the anti-proliferative effects of tested compounds on cancer cells. Cell lines were incubated and regularly treated with DMSO or increasing doses of tested compounds for 48 h. The cells were fixed with 10% trichloroacetic acid and stained with SRB fluorescent dye for 30 min. Then, the bounded SRB dye to cellular proteins was dissolved in 10 mM Tris base after washing excess dye with 1% acetic acid. The absorbance was measured at 510 nm in a reader (Biotek, Winooski, VT, USA)."}, "BxPC-3": {"tested_on": "BxPC-3", "experiment": "SRB cellular proliferation assay", "assay_type": "cell-based, human", "settings": "Homo sapiens, BxPC-3 cells, mean ± SD (n = 3), read-out: IC50", "description": "as §2"}, "Panc-1": {"tested_on": "Panc-1", "experiment": "SRB cellular proliferation assay", "assay_type": "cell-based, human", "settings": "Homo sapiens, Panc-1 cells, mean ± SD (n = 3), read-out: IC50", "description": "as §2"}, "P. aeruginosa [1]": {"tested_on": "P. aeruginosa", "experiment": "Assay of hemolytic activity", "assay_type": "cell-based, Pseudomonas aeruginosa", "settings": "sub-MIC", "description": "as §1"}, "[2]": {"tested_on": "Pseudomonas aeruginosae ATCC 47085", "experiment": "MIC by agar dilution", "assay_type": "cell-based, Pseudomonas aeruginosa", "settings": "ATCC47085, 37 °C, 20 h, read-out: Minimum inhibitory concentration (MIC)", "description": "The MICs of the synthesized compound were determined by agar dilution method according to the Clinical Laboratory and Standards Institute Guidelines (CLSI, 2015). Briefly, the tested strains were incubated overnight in tryptic soy broth (TSB) (Oxoid, United Kingdom) and then diluted in Muller–Hinton (MH) broth (Oxoid, United Kingdom) to turbidity approximating to the equivalent of 0.5 McFarland standard. The suspensions were further diluted with sterile saline (1:10) and standardized inoculums (approximately 10^4 CFU per spot) were spotted on the surfaces of MH agar (Oxoid, United Kingdom) plates containing different concentrations of tested compounds and a control plate. The MICs were the lowest concentrations that inhibit growth on the plates after incubation at 37 °C for 20 h."}, "P. aeruginosa [3]": {"tested_on": "P. aeruginosa", "experiment": "Assay of protease production (casein substrate)", "assay_type": "cell-based, Pseudomonas aeruginosa", "settings": "sub-MIC", "description": "The effect of compounds 5, 7 and 10 on the production of protease was evaluated using casein substrate as described earlier. Briefly, overnight cultures of P. aeruginosa and S. aureus were cultivated in LB broth in the presence or absence of compounds 5, 7 and 10 at ½ MIC for 24 h at 37 °C. The supernatants were collected, mixed (1:1) with 0.05 M casein in phosphate buffer (2%) and NaOH (0.1 M) at pH 7.0, and incubated for 15 min at 37 °C. The reaction was stopped by adding 2 mL of 0.4 M trichloroacetic acid for 30 min at 25 °C. Any precipitates were removed, and the optical densities were detected at 660 nm. The assays were performed in triplicate and the obtained optical densities of tested strains treated with compounds 5, 7 and 10 were expressed as mean ± standard error of percentage change from untreated tested strains control (positive control) and LB (negative control). The protease inhibition percentages were calculated: (O.D control—O.D tested compounds)/O.D control."}, "S. aureus ATCC 6538": {"tested_on": "S. aureus ATCC 6538", "experiment": "Biofilm formation assay (crystal violet, light microscopy)", "assay_type": "cell-based, Staphylococcus aureus", "settings": "sub-MIC (½ MIC), crystal violet method", "description": "(§3) Bacterial virulence is regulated via a quorum sensing (QS) system in an inducer/receptor manner. Diminishing bacterial virulence is an advantageous strategy to decrease the development of bacterial resistance. In this direction, anti-virulence and anti-QS activities have been explored in several studies as reviewed. The ability of P. aeruginosa or S. aureus to form biofilms was assayed in the absence or presence of tested compounds at sub-MIC. […] The experiment was conducted in triplicate and a one-way ANOVA test was employed to test the statistical significance using Graphpad Prism 8 software. The results were significant statistically where p values < 0.05. Moreover, microscopic visualization of biofilm under the effect of tested compounds was also performed by light microscopy. Representative images for the inhibitory effects on S. aureus and P. aeruginosa biofilm formation are shown (Figure 3C,D). The microscopic images show a marked reduction in both the thickness of and surface area covered by the biofilms in presence of the tested compound.\n(§4) In order to evaluate the ability of the tested compounds to inhibit the biofilm formation, a strong biofilm forming P. aeruginosa ATCC 47,085 [47, 66] and S. aureus ATCC 6538 [67] strains were used. As described earlier, suspensions of tested strains were prepared from overnight cultures in TSB and their optical densities were adjusted to OD600 of 0.4 (1×10^8 CFU/mL). Aliquots of 10 μL of the suspensions were added to 1 mL amounts of fresh TSB with or without sub-MICs of tested compounds. […] The non-adherent cells were removed, the wells were washed with sterile PBS, and left to dry. The attached biofilm forming cells were fixed with methanol for 25 min and stained with 1% crystal violet for 30 min. The excess dye was washed out and the crystal violet staining adhered biofilm forming cells were eluted by glacial acetic acid (33%). The experiment was conducted in triplicate and the absorbance was measured at 590 nm. The absorbances of tested strains treated with different compounds were expressed as mean ± standard error of percentage change from untreated tested strains control. The percentages of biofilm inhibition were calculated employing the following formula: (absorbance of control—absorbance in presence of tested compounds)/absorbance of control."}, "[4]": {"tested_on": "P. aeruginosa ATCC 47,085", "experiment": "Biofilm formation assay (crystal violet, light microscopy)", "assay_type": "cell-based, Pseudomonas aeruginosa", "settings": "sub-MIC (½ MIC), crystal violet method", "description": "as §3, §4"}},
  "data": [
    {"smiles": "Cc1ccc(S(=O)(=O)Nc2ccccc2C2=N/C(=C/c3ccccc3)C(=O)O2)cc1", "note": "[Compound 9a, (E)-N-(2-(4-Benzylidene-5-oxo-4,5-dihydrooxazol-2-yl)phenyl)-4-methylbenzenesulfonamide]", "values": [
      {"measurement": "Hemolytic activity", "setting": "S. aureus", "value": "significantly diminished the hemolytic activity"},
      {"measurement": "IC50", "setting": "HepG-2", "value": "11 ± 2.39", "unit": "µg/mL"},
      {"measurement": "IC50", "setting": "BxPC-3", "value": "14.4 ± 0.73", "unit": "µg/mL"},
      {"measurement": "IC50", "setting": "Panc-1", "value": "11.9 ± 0.76", "unit": "µg/mL"},
      {"measurement": "Hemolytic activity", "setting": "P. aeruginosa [1]", "value": "significantly diminished the hemolytic activity"},
      {"measurement": "MIC", "setting": "[2]", "value": 8, "unit": "µg/mL"},
      {"measurement": "Production of protease", "setting": "P. aeruginosa [3]", "value": "significantly reduced the production of protease"},
      {"measurement": "Inhibition of biofilm formation", "setting": "S. aureus ATCC 6538", "value": "highest abilities to inhibit biofilm formation"},
      {"measurement": "Inhibition of biofilm formation", "setting": "[4]", "value": "highest abilities to inhibit biofilm formation"}
    ]},
    {"smiles": "COc1ccc(/C=C2/N=C(c3ccccc3NS(=O)(=O)c3ccc(C)cc3)OC2=O)cc1", "note": "[Compound 9b, (E)-N-(2-(4-(4-Methoxybenzylidene)-5-oxo-4,5-dihydrooxazol-2-yl)phenyl)-4-methylbenzenesulfonamide]", "values": [
      {"measurement": "Hemolytic activity", "setting": "S. aureus", "value": "significantly diminished the hemolytic activity"},
      {"measurement": "IC50", "setting": "HepG-2", "value": "8.53 ± 1.1", "unit": "µg/mL"},
      {"measurement": "IC50", "setting": "BxPC-3", "value": "14.9 ± 4.19", "unit": "µg/mL"},
      {"measurement": "IC50", "setting": "Panc-1", "value": "13.6 ± 1.16", "unit": "µg/mL"},
      {"measurement": "Hemolytic activity", "setting": "P. aeruginosa [1]", "value": "significantly diminished the hemolytic activity"},
      {"measurement": "MIC", "setting": "[2]", "value": 4, "unit": "µg/mL"},
      {"measurement": "Production of protease", "setting": "P. aeruginosa [3]", "value": "significantly reduced the production of protease"},
      {"measurement": "Inhibition of biofilm formation", "setting": "S. aureus ATCC 6538", "value": "highest abilities to inhibit biofilm formation"},
      {"measurement": "Inhibition of biofilm formation", "setting": "[4]", "value": "highest abilities to inhibit biofilm formation"}
    ]},
    {"smiles": "Cc1ccc(S(=O)(=O)Nc2ccccc2C2=N/C(=C/c3ccc([N+](=O)[O-])cc3)C(=O)O2)cc1", "note": "[Compound 9f, (E)-4-Methyl-N-(2-(4-(4-nitrobenzylidene)-5-oxo-4,5-dihydrooxazol-2-yl)phenyl)benzenesulfonamide]", "values": [
      {"measurement": "Hemolytic activity", "setting": "S. aureus", "value": "significantly diminished the hemolytic activity"},
      {"measurement": "IC50", "setting": "HepG-2", "value": "6.39 ± 1.25", "unit": "µg/mL"},
      {"measurement": "IC50", "setting": "BxPC-3", "value": "14.2 ± 1.87", "unit": "µg/mL"},
      {"measurement": "IC50", "setting": "Panc-1", "value": "12.6 ± 1.2", "unit": "µg/mL"},
      {"measurement": "Hemolytic activity", "setting": "P. aeruginosa [1]", "value": "significantly diminished the hemolytic activity"},
      {"measurement": "MIC", "setting": "[2]", "value": 4, "unit": "µg/mL"},
      {"measurement": "Production of protease", "setting": "P. aeruginosa [3]", "value": "significantly reduced the production of protease"},
      {"measurement": "Inhibition of biofilm formation", "setting": "S. aureus ATCC 6538", "value": "highest abilities to inhibit biofilm formation"},
      {"measurement": "Inhibition of biofilm formation", "setting": "[4]", "value": "highest abilities to inhibit biofilm formation"}
    ]}
  ]
}
